Experiments:
Format in all cases: cell-based, human
[1] = test system: SR; assay: SRB anti-cancer assay, Leukemia; conditions: 48 h
[2] = test system: SK-OV-3; assay: SRB anti-cancer assay, Ovarian Cancer; conditions: SK-OV-3 (Ovarian Cancer), 48 h
[3] = test system: UACC-257; assay: SRB anti-cancer assay, Melanoma; conditions: UACC-257 (Melanoma), 48 h
[4] = test system: 786-0; assay: SRB anti-cancer assay, Renal Cancer; conditions: 786-0 (Renal Cancer), 48 h
[5] = test system: OVCAR-4; assay: SRB anti-cancer assay, Ovarian Cancer; conditions: OVCAR-4 (Ovarian Cancer), 48 h
[6] = test system: MDA-N; assay: SRB anti-cancer assay, Breast Cancer; conditions: 48 h
[7] = test system: OVCAR-3; assay: SRB anti-cancer assay, Ovarian Cancer; conditions: OVCAR-3 (Ovarian Cancer), 48 h
[8] = test system: UACC-62; assay: SRB anti-cancer assay, Melanoma; conditions: UACC-62 (Melanoma), 48 h
[9] = test system: NCI/ADR-RES; assay: SRB anti-cancer assay, Breast Cancer; conditions: 48 h
[10] = test system: MALME-3M; assay: SRB anti-cancer assay, Melanoma; conditions: MALME-3M (Melanoma), 48 h
[11] = test system: A498; assay: SRB anti-cancer assay, Renal Cancer; conditions: 48 h
[12] = test system: SN12C; assay: SRB anti-cancer assay, Renal Cancer; conditions: 48 h
[13] = test system: CAKI-1; assay: SRB anti-cancer assay, Renal Cancer; conditions: CAKI-1 (Renal Cancer), 48 h
[14] = test system: RPMI-8226; assay: SRB anti-cancer assay, Leukemia; conditions: RPMI-8226 (Leukemia), 48 h
[15] = test system: HCC-2998; assay: SRB anti-cancer assay, Colon Cancer; conditions: HCC-2998 (Colon Cancer), 48 h
[16] = test system: DU-145; assay: SRB anti-cancer assay, Prostate Cancer; conditions: DU-145 (Prostate Cancer), 48 h
[17] = test system: SF-268; assay: SRB anti-cancer assay, CNS Cancer; conditions: SF-268 (CNS Cancer), 48 h
[18] = test system: UO-31; assay: SRB anti-cancer assay, Renal Cancer; conditions: UO-31 (Renal Cancer), 48 h
[19] = test system: COLO 205; assay: SRB anti-cancer assay, Colon Cancer; conditions: COLO 205 (Colon Cancer), 48 h
[20] = test system: HCT-15; assay: SRB anti-cancer assay, Colon Cancer; conditions: HCT-15 (Colon Cancer), 48 h
[21] = test system: ACHN; assay: SRB anti-cancer assay, Renal Cancer; conditions: 48 h
[22] = test system: SW-620; assay: SRB anti-cancer assay, Colon Cancer; conditions: SW-620 (Colon Cancer), 48 h
[23] = test system: SK-MEL-28; assay: SRB anti-cancer assay, Melanoma; conditions: SK-MEL-28 (Melanoma), 48 h
[24] = test system: SNB-75; assay: SRB anti-cancer assay, CNS Cancer; conditions: SNB-75 (CNS Cancer), 48 h
[25] = test system: A549/ATCC; conditions: A549/ATCC (Non-Small Cell Lung Cancer), 48 h
[26] = test system: HOP-62; conditions: HOP-62 (Non-Small Cell Lung Cancer), 48 h
[27] = test system: OVCAR-8; assay: SRB anti-cancer assay, Ovarian Cancer; conditions: OVCAR-8 (Ovarian Cancer), 48 h
[28] = test system: NCI-H460; conditions: NCI-H460 (Non-Small Cell Lung Cancer), 48 h
[29] = test system: CCRF-CEM; assay: SRB anti-cancer assay, Leukemia; conditions: 48 h
[30] = test system: M14; assay: SRB anti-cancer assay, Melanoma; conditions: 48 h
[31] = read-out: LC50 (the source's name)

## N=c1nc(N)c2ncn([C@@H]3O[C@H](CO)[C@@H](O)[C@H]3O)c2c(N)n1 [Compound 14-2, 4,8-Diamino-6H-6-imino-1-β-D-ribofuranosylimidazo[4,5-e][1,3]diazepine]
[1]
  GI50: > 100 µM
  LC50 (concentration killing 50% of cells): > 100 µM
  TGI: >100 µM
[2]
  GI50: 51.8 µM
  TGI: >100 µM
[2]; [31]
  CC50: > 100 µM
[3]
  GI50: 12.7 µM
  TGI: 25.8 µM
[3]; [31]
  CC50: 52.3 µM
[4]
  GI50: 15.7 µM
  TGI: 47 µM
[5]
  GI50: 16.7 µM
  TGI: 35.6 µM
[5]; [31]
  CC50: 76.1 µM
[6]
  GI50: 12.5 µM
  TGI: 26.1 µM
[6]; [31]
  CC50: 54.5 µM
[7]
  GI50: 3.53 µM
  TGI: 13.2 µM
[7]; [31]
  CC50: 42.3 µM
[8]
  GI50: 2.88 µM
  TGI: 16.2 µM
[8]; [31]
  CC50: 56.3 µM
[9]
  GI50: 23.4 µM
  TGI: 67.6 µM
[9]; [31]
  CC50: > 100 µM
[10]
  GI50: 2.2 µM
  LC50: 25.3 µM
  TGI: 6.79 µM
[11]
  GI50: 23.1 µM
  TGI: 74.7 µM
[11]; [31]
  CC50: > 100 µM
[12]
  GI50: 14.5 µM
  TGI: 29.8 µM
[12]; [31]
  CC50: 61.2 µM
[13]
  GI50: 20.3 µM
  TGI: 71 µM
[13]; [31]
  CC50: > 100 µM
[14]
  GI50: 32.8 µM
  TGI: >100 µM
[14]; [31]
  CC50: > 100 µM
[15]
  GI50: 16.4 µM
  TGI: 30.8 µM
[15]; [31]
  CC50: 58 µM
[16]
  GI50: 15 µM
  TGI: 30.2 µM
[16]; [31]
  CC50: 60.7 µM
[17]
  GI50: 15.7 µM
  TGI: 34.8 µM
[17]; [31]
  CC50: 77.2 µM
[18]
  GI50: 13.7 µM
  TGI: 28.9 µM
[18]; [31]
  CC50: 61.2 µM
[19]
  GI50: 21 µM
  LC50: 63.4 µM
  TGI: 36.5 µM
[20]
  GI50: 11.8 µM
  TGI: 27.4 µM
[20]; [31]
  CC50: 63.5 µM
[21]
  GI50: 12.3 µM
  TGI: 27.2 µM
[21]; [31]
  CC50: 59.9 µM
[22]
  GI50: 17.2 µM
  TGI: >100 µM
[22]; [31]
  CC50: > 100 µM
[23]
  GI50: 25.4 µM
  LC50: > 100 µM
  TGI: 81.1 µM
[24]
  GI50: 27.9 µM
  LC50 (concentration killing 50% of cells): > 100 µM
  TGI: 99.1 µM
[25]
  GI50: 22.3 µM
  TGI: 58.4 µM
[25]; [31]
  CC50: > 100 µM
[26]
  GI50: 28.5 µM
  LC50 (concentration for 50% net cell kill): > 100 µM
  TGI: >100 µM
[27]
  GI50: 13.2 µM
  LC50 (50% lethal concentration): 75.3 µM
  TGI: 31.5 µM
[28]
  GI50: 15.4 µM
  TGI: 31.4 µM
[28]; [31]
  CC50: 64.1 µM
[29]
  GI50: 59 µM
  TGI: >100 µM
[29]; [31]
  CC50: > 100 µM
[30]
  GI50: 11.5 µM
  TGI: 24.3 µM
[30]; [31]
  CC50: 51.1 µM

— US6677310B1, “Ring-expanded nucleosides and nucleotides” (Nabi, priority 1999, dated 2004)
